Values after ≈ are worked out from the molar mass of the structure shown.
Key:
Assay type in all cases: functional
Streptococcus pneumoniae [1] = assay: Antibacterial activity against erythromycin susceptible Streptococcus pneumoniae 1016
Streptococcus pyogenes [2] = assay: Antibacterial activity against erythromycin susceptible Streptococcus pyogenes 203
Staphylococcus aureus [3] = assay: Antibacterial activity against erm containing Staphylococcus aureus 1117
Streptococcus pneumoniae [4] = assay: Antibacterial activity against mef containing Streptococcus pneumoniae 1175
Haemophilus influenzae [5] = assay: Antibacterial activity against Haemophilus influenzae 1100
Streptococcus pyogenes [6] = assay: Antibacterial activity against erm containing Streptococcus pyogenes 1079
Streptococcus pneumoniae [7] = assay: Antibacterial activity against erm containing Streptococcus pneumoniae 1095
Staphylococcus aureus [8] = assay: Antibacterial activity against erythromycin susceptible Staphylococcus aureus 0052
Staphylococcus aureus [9] = assay: Antibacterial activity against erm containing Staphylococcus aureus 1095
Haemophilus influenzae [10] = assay: Antibacterial activity against Haemophilus influenzae 1218
Staphylococcus aureus [11] = assay: Antibacterial activity against erythromycin susceptible Staphylococcus aureus 1146

SMILES | MIC (Streptococcus pneumoniae [1]) | MIC (Streptococcus pyogenes [2]) | MIC (Staphylococcus aureus [3]) | MIC (Streptococcus pneumoniae [4]) | MIC (Haemophilus influenzae [5]) | MIC (Streptococcus pyogenes [6]) | MIC (Streptococcus pneumoniae [7]) | MIC (Staphylococcus aureus [8]) | MIC (Staphylococcus aureus [9]) | MIC (Haemophilus influenzae [10]) | MIC (Staphylococcus aureus [11])
CC[C@H]1OC(=O)[C@@](C)(F)C(=O)[C@H](C)[C@@H](O[C@@H]2O[C@H](C)C[C@H](N(C)C)[C@H]2O)[C@@](C)(OC)C[C@@H](C)C(=O)[C@H](C)[C@H]2N(CCCCn3cnc(-c4cccnc4)c3)C(=O)N(C)[C@]12C | 0.013 µg/mL (≈ 0.0154 µM) | 0.024 µg/mL (≈ 0.0285 µM) | 100 µg/mL (≈ 119 µM) | 0.2 µg/mL (≈ 0.237 µM) | 2 µg/mL (≈ 2.37 µM) | 8 µg/mL (≈ 9.49 µM) | 0.025 µg/mL (≈ 0.0297 µM) | 0.024 µg/mL (≈ 0.0285 µM) |  |  | 
CC[C@H]1OC(=O)[C@@](C)(F)C(=O)[C@H](C)[C@@H](O[C@@H]2O[C@H](C)C[C@H](N(C)C)[C@H]2O)[C@@](C)(OC)C[C@@H](C)C(=O)[C@H](C)[C@H]2N(C/C=C/Cn3cnc4cccnc43)C(=O)N[C@]12C | 0.063 µg/mL (≈ 0.0787 µM) | 0.063 µg/mL (≈ 0.0787 µM) |  | 0.25 µg/mL (≈ 0.312 µM) |  | 2 µg/mL (≈ 2.5 µM) | 0.063 µg/mL (≈ 0.0787 µM) |  | 64 µg/mL (≈ 79.9 µM) | 0.5 µg/mL (≈ 0.624 µM) | 0.063 µg/mL (≈ 0.0787 µM)
C/C=C/CN1C(=O)N(CCCCn2cnc(-c3cccnc3)c2)[C@@H]2[C@@H](C)C(=O)[C@H](C)C[C@](C)(OC)[C@H](O[C@@H]3O[C@H](C)C[C@H](N(C)C)[C@H]3O)[C@@H](C)C(=O)[C@](C)(F)C(=O)O[C@H](CC)[C@]21C | 0.05 µg/mL (≈ 0.0566 µM) | 0.049 µg/mL (≈ 0.0555 µM) | 100 µg/mL (≈ 113 µM) | 0.39 µg/mL (≈ 0.442 µM) | 0.25 µg/mL (≈ 0.283 µM) | 32 µg/mL (≈ 36.2 µM) | 0.1 µg/mL (≈ 0.113 µM) | 0.098 µg/mL (≈ 0.111 µM) |  |  | 
C=CCN1C(=O)N(CCCCn2cnc(-c3cccnc3)c2)[C@@H]2[C@@H](C)C(=O)[C@H](C)C[C@](C)(OC)[C@H](O[C@@H]3O[C@H](C)C[C@H](N(C)C)[C@H]3O)[C@@H](C)C(=O)[C@](C)(F)C(=O)O[C@H](CC)[C@]21C | 0.025 µg/mL (≈ 0.0288 µM) | 0.012 µg/mL (≈ 0.0138 µM) | 100 µg/mL (≈ 115 µM) | 0.39 µg/mL (≈ 0.449 µM) | 0.5 µg/mL (≈ 0.575 µM) | 64 µg/mL (≈ 73.6 µM) | 0.05 µg/mL (≈ 0.0575 µM) | 0.049 µg/mL (≈ 0.0564 µM) |  |  | 
CC[C@H]1OC(=O)[C@H](C)C(=O)[C@H](C)[C@@H](O[C@@H]2O[C@H](C)C[C@H](N(C)C)[C@H]2O)[C@@](C)(OC)C[C@@H](C)C(=O)[C@H](C)[C@H]2N(C/C=C/Cn3cnc(-c4cccnc4)c3)C(=O)N[C@]12C | 0.063 µg/mL (≈ 0.0779 µM) | 0.063 µg/mL (≈ 0.0779 µM) |  | 4 µg/mL (≈ 4.94 µM) |  | 32 µg/mL (≈ 39.6 µM) | 0.063 µg/mL (≈ 0.0779 µM) |  | 64 µg/mL (≈ 79.1 µM) | 2 µg/mL (≈ 2.47 µM) | 0.25 µg/mL (≈ 0.309 µM)
CC[C@H]1OC(=O)[C@H](C)C(=O)[C@H](C)[C@@H](O[C@@H]2O[C@H](C)C[C@H](N(C)C)[C@H]2O)[C@@](C)(OC)C[C@@H](C)C(=O)[C@H](C)[C@H]2N(C/C=C/Cn3cnc4cccnc43)C(=O)N[C@]12C | 0.063 µg/mL (≈ 0.0805 µM) | 0.063 µg/mL (≈ 0.0805 µM) |  | 1 µg/mL (≈ 1.28 µM) |  | 16 µg/mL (≈ 20.4 µM) | 0.063 µg/mL (≈ 0.0805 µM) |  | 64 µg/mL (≈ 81.7 µM) | 1 µg/mL (≈ 1.28 µM) | 0.13 µg/mL (≈ 0.166 µM)
CC[C@H]1OC(=O)[C@@](C)(F)C(=O)[C@H](C)[C@@H](O[C@@H]2O[C@H](C)C[C@H](N(C)C)[C@H]2O)[C@@](C)(OC)C[C@@H](C)C(=O)[C@H](C)[C@H]2N(C/C=C/Cn3cnc(-c4cccnc4)c3)C(=O)N[C@]12C | 0.063 µg/mL (≈ 0.0762 µM) | 0.063 µg/mL (≈ 0.0762 µM) |  | 0.25 µg/mL (≈ 0.302 µM) |  | 4 µg/mL (≈ 4.84 µM) | 0.063 µg/mL (≈ 0.0762 µM) |  | 64 µg/mL (≈ 77.4 µM) | 0.5 µg/mL (≈ 0.605 µM) | 0.063 µg/mL (≈ 0.0762 µM)
CC[C@H]1OC(=O)[C@H](C)C(=O)[C@H](C)[C@@H](O[C@@H]2O[C@H](C)C[C@H](N(C)C)[C@H]2O)[C@@](C)(OC)C[C@@H](C)C(=O)[C@H](C)[C@H]2N(CCCCn3cnc(-c4cccnc4)c3)C(=O)N[C@]12C | 0.024 µg/mL (≈ 0.0296 µM) | 0.024 µg/mL (≈ 0.0296 µM) | 100 µg/mL (≈ 123 µM) | 6.3 µg/mL (≈ 7.77 µM) | 8 µg/mL (≈ 9.86 µM) | 32 µg/mL (≈ 39.5 µM) | 0.049 µg/mL (≈ 0.0604 µM) | 0.039 µg/mL (≈ 0.0481 µM) |  |  | 
CC[C@H]1OC(=O)[C@@](C)(F)C(=O)[C@H](C)[C@@H](O[C@@H]2O[C@H](C)C[C@H](N(C)C)[C@H]2O)[C@@](C)(OC)C[C@@H](C)C(=O)[C@H](C)[C@H]2N(CCCCn3cnc(-c4cccnc4)c3)C(=O)N[C@]12C | 0.006 µg/mL (≈ 0.00724 µM) | 0.006 µg/mL (≈ 0.00724 µM) | 100 µg/mL (≈ 121 µM) | 0.78 µg/mL (≈ 0.941 µM) | 2 µg/mL (≈ 2.41 µM) | 4 µg/mL (≈ 4.82 µM) | 0.012 µg/mL (≈ 0.0145 µM) | 0.049 µg/mL (≈ 0.0591 µM) |  |  | 
CC[C@H]1OC(=O)[C@@](C)(F)C(=O)[C@H](C)[C@@H](O[C@@H]2O[C@H](C)C[C@H](N(C)C)[C@H]2O)[C@@](C)(OC)C[C@@H](C)C(=O)[C@H](C)[C@H]2N(C/C=C/Cn3cnc(-c4cccnc4)c3)C(=O)N(C)[C@]12C | 0.063 µg/mL (≈ 0.0749 µM) | 0.063 µg/mL (≈ 0.0749 µM) |  | 0.063 µg/mL (≈ 0.0749 µM) |  | 4 µg/mL (≈ 4.76 µM) | 0.063 µg/mL (≈ 0.0749 µM) |  | 64 µg/mL (≈ 76.1 µM) | 1 µg/mL (≈ 1.19 µM) | 0.063 µg/mL (≈ 0.0749 µM)
CC[C@H]1OC(=O)[C@@](C)(F)C(=O)[C@H](C)[C@@H](O[C@@H]2O[C@H](C)C[C@H](N(C)C)[C@H]2O)[C@@](C)(OC)C[C@@H](C)C(=O)[C@H](C)[C@H]2N(CCCCn3cnc(-c4cccnc4)c3)C(=O)N(CC)[C@]12C | 0.013 µg/mL (≈ 0.0152 µM) | 0.024 µg/mL (≈ 0.028 µM) | 100 µg/mL (≈ 117 µM) | 0.39 µg/mL (≈ 0.455 µM) | 0.25 µg/mL (≈ 0.292 µM) | 32 µg/mL (≈ 37.3 µM) | 0.025 µg/mL (≈ 0.0292 µM) | 0.049 µg/mL (≈ 0.0572 µM) |  |  | 
CC/C=C/CN1C(=O)N(CCCCn2cnc(-c3cccnc3)c2)[C@@H]2[C@@H](C)C(=O)[C@H](C)C[C@](C)(OC)[C@H](O[C@@H]3O[C@H](C)C[C@H](N(C)C)[C@H]3O)[C@@H](C)C(=O)[C@](C)(F)C(=O)O[C@H](CC)[C@]21C | 0.05 µg/mL (≈ 0.0557 µM) | 0.098 µg/mL (≈ 0.109 µM) | 100 µg/mL (≈ 111 µM) | 0.78 µg/mL (≈ 0.869 µM) | 0.5 µg/mL (≈ 0.557 µM) | 64 µg/mL (≈ 71.3 µM) | 0.1 µg/mL (≈ 0.111 µM) | 0.098 µg/mL (≈ 0.109 µM) |  |  | 
CC[C@H]1OC(=O)[C@@](C)(F)C(=O)[C@H](C)[C@@H](O[C@@H]2O[C@H](C)C[C@H](N(C)C)[C@H]2O)[C@@](C)(OC)C[C@@H](C)C(=O)[C@H](C)[C@H]2N(C/C=C/Cn3cnc4cccnc43)C(=O)N(C)[C@]12C | 0.063 µg/mL (≈ 0.0773 µM) | 0.063 µg/mL (≈ 0.0773 µM) |  | 0.13 µg/mL (≈ 0.16 µM) |  | 2 µg/mL (≈ 2.45 µM) | 0.063 µg/mL (≈ 0.0773 µM) |  | 64 µg/mL (≈ 78.5 µM) | 0.25 µg/mL (≈ 0.307 µM) | 0.063 µg/mL (≈ 0.0773 µM)
CC[C@H]1OC(=O)[C@H](C)C(=O)[C@H](C)[C@@H](O[C@@H]2O[C@H](C)C[C@H](N(C)C)[C@H]2O)[C@](C)(OC)C[C@@H](C)C(=O)[C@H](C)[C@H]2N(CCCCn3cnc(-c4cccnc4)c3)C(=O)O[C@]12C [TELITHROMYCIN] | 0.013 µg/mL (≈ 0.016 µM) | 0.012 µg/mL (≈ 0.0148 µM) | 100 µg/mL (≈ 123 µM) | 0.13 µg/mL (≈ 0.16 µM) | 0.5 µg/mL (≈ 0.616 µM) | 32 µg/mL (≈ 39.4 µM) | 0.05 µg/mL (≈ 0.0616 µM) | 0.049 µg/mL (≈ 0.0603 µM) | 64 µg/mL (≈ 78.8 µM) | 0.5 µg/mL (≈ 0.616 µM) | 0.063 µg/mL (≈ 0.0776 µM)

Source: ChEMBL document CHEMBL1149696, “Synthesis and antibacterial activity of C11, C12-cyclic urea analogues of ketolides” (2007)
